A short description of data set [1]: Dissociation constant, pKa of the compound. In kind it is physicochemical.
A short description of data set [2]: Unbound fraction in plasma (unknown origin) under normal atmospheric condition at pH 7.22 after 6 hrs by equilibrium dialysis method. In kind it is ADME, cell-free.
Data set [3] in a line: Unbound fraction in plasma (unknown origin) at pH 7.4 after 6 hrs by equilibrium dialysis method in presence of 5% CO2. Format: ADME, cell-free. In general terms: In equilibrium dialysis free small molecules cross a membrane that holds back macromolecules.
The nature of data set [4]: Unbound fraction in plasma (unknown origin) at pH 7.63 after 6 hrs by equilibrium dialysis method in presence of 5% CO2. Format: ADME, cell-free.
Data set [5] can be described thus: Unbound fraction in plasma (unknown origin) under normal atmospheric condition at pH 7.72 after 6 hrs by equilibrium dialysis method. Format: ADME, cell-free.
A short description of data set [6]: Drug recovery in plasma (unknown origin). In kind it is ADME, cell-free.

pKa, fraction unbound and Compound recovery data for 22 compounds are collected here from ChEMBL document CHEMBL3526113, “Control and measurement of plasma pH in equilibrium dialysis: influence on drug plasma protein binding” (Drug Metab Dispos, 2011).

`CCN(CC)C(=O)C1(c2ccccc2)CC1CN` (stereo not given): the pKa (in general, the pH at which an ionisable group is half protonated) in data set [1] is 9.7. In addition, the fraction unbound (as a rule, free concentration divided by total concentration) at 6 h turned out to be 0.809 in data set [2], 0.837 in data set [3], 0.777 in data set [4] and 0.828 in data set [5]. Besides, the Compound recovery in data set [6] is recorded as more than 70%.

`COc1ccc(CCN(C)CCCC(C#N)(c2ccc(OC)c(OC)c2)C(C)C)cc1OC` (stereo not given) came in with a Compound recovery in data set [6] of more than 70%.

On to `N[C@@H]1C[C@H]1c1ccccc1.N[C@H]1C[C@@H]1c1ccccc1` (racemic) [TRANYLCYPROMINE], for which the pKa in data set [1] stood at 8.2. The fraction unbound at 6 h in data set [2] came out at 0.63; in data set [3], 0.612; in data set [4], 0.53; in data set [5] it was 0.49. In data set [6], this compound gave a Compound recovery of more than 70%.

`O=C1CC2(CCCC2)CC(=O)N1CCCCN1CCN(c2ncccn2)CC1` [BUSPIRONE] gave a pKa in data set [1] of 7.3. For the same compound, the Compound recovery in data set [6] is more than 70%.

Regarding `NC(=O)N1c2ccccc2C=Cc2ccccc21` [CARBAMAZEPINE], the fraction unbound at 6 h in data set [2] amounted to 0.303; in data set [3], 0.291; in data set [4], 0.288; in data set [5], 0.299. For the same compound, the Compound recovery in data set [6] was more than 70%.

In the case of `CCn1nc(C(=O)O)c(=O)c2cc3c(cc21)OCO3` [CINOXACIN], the pKa in data set [1] was found to be 4.7. Moreover, the fraction unbound at 6 h in data set [2] stood at 0.251; in data set [3], 0.214; in data set [4] it was 0.23; in data set [5] it was 0.266. The Compound recovery in data set [6] is on record as more than 70%.

Turning to `CN1CCN(C2=Nc3cc(Cl)ccc3Nc3ccccc32)CC1` [CLOZAPINE], the unbound share (fraction unbound) at 6 h in data set [2] is 0.101; in data set [3], 0.081; in data set [4], 0.058; in data set [5] it was 0.042. In data set [6], this compound returned a Compound recovery of more than 70%.

In turn, `CN1C(=O)CN=C(c2ccccc2)c2cc(Cl)ccc21` [DIAZEPAM] gave a Compound recovery in data set [6] of more than 70%.

`O=C(O)Cc1ccccc1Nc1c(Cl)cccc1Cl` [DICLOFENAC] registered a Compound recovery in data set [6] of more than 70%.

For the compound `COc1ccc([C@@H]2Sc3ccccc3N(CCN(C)C)C(=O)[C@@H]2OC(C)=O)cc1` [DILTIAZEM], in data set [1], the pKa came to 8. The fraction unbound at 6 h in data set [2] is 0.417; in data set [3] it was 0.349; in data set [4], 0.35; in data set [5], 0.298. Further, the Compound recovery in data set [6] is given as more than 70%.

In the case of `CNCCC(Oc1ccc(C(F)(F)F)cc1)c1ccccc1` (stereo not given) [FLUOXETINE], the fraction unbound at 6 h in data set [2] was found to be 0.079; in data set [3] it was 0.056; in data set [4], 0.063; in data set [5], 0.04. In addition, the Compound recovery in data set [6] is listed as more than 70%.

`O=C(CCCN1CCC(O)(c2ccc(Cl)cc2)CC1)c1ccc(F)cc1` [HALOPERIDOL]: the fraction unbound at 6 h in data set [2] turned out to be 0.223; in data set [3], 0.161; in data set [4] it was 0.164; in data set [5], 0.124. The same compound registered a Compound recovery in data set [6] of more than 70%.

With `CN(C)CCCN1c2ccccc2CCc2ccccc21` [IMIPRAMINE], the fraction unbound at 6 h in data set [2] worked out at 0.22; in data set [3], 0.181; in data set [4], 0.172; in data set [5] it was 0.105. The compound also displayed a Compound recovery in data set [6] of more than 70%.

`Cc1ncc2n1-c1ccc(Cl)cc1C(c1ccccc1F)=NC2` [MIDAZOLAM] came in with a pKa in data set [1] of 9. Also, the fraction unbound at 6 h in data set [2] was determined as 0.034; in data set [3], 0.036; in data set [4], 0.041; in data set [5] it was 0.019. The same compound gave a Compound recovery in data set [6] of 63%.

As to `CN1CCN2c3ncccc3Cc3ccccc3C2C1` (stereo not given) [MIRTAZAPINE], the fraction unbound at 6 h was 0.32 in data set [2], 0.286 in data set [3], 0.266 in data set [4] and 0.16 in data set [5]. Besides, the Compound recovery in data set [6] was more than 70%.

On to `COC(=O)C1=C(C)NC(C)=C(C(=O)OCCN(C)Cc2ccccc2)C1c1cccc([N+](=O)[O-])c1` (stereo not given) [NICARDIPINE], for which the pKa in data set [1] was 7.2. The fraction unbound at 6 h in data set [2] worked out at 0.008; in data set [3], 0.005; in data set [4] it was 0.008; in data set [5] it was 0.003. Besides, the Compound recovery in data set [6] is reported as more than 70%.

Take `Fc1ccc([C@@H]2CCNC[C@H]2COc2ccc3c(c2)OCO3)cc1` [PAROXETINE]: in data set [1], the pKa is 9.5. The fraction unbound at 6 h in data set [2] came out at 0.136; in data set [3], 0.099; in data set [4], 0.089; in data set [5], 0.074. Besides, the Compound recovery in data set [6] is more than 70%.

Turning to `CC(C)NCC(O)COc1cccc2ccccc12` (stereo not given) [PROPRANOLOL], the fraction unbound at 6 h in data set [2] was determined as 0.315; in data set [3] it was 0.231; in data set [4], 0.213; in data set [5], 0.216. In data set [6], this compound had a Compound recovery of more than 70%.

As for `C=C[C@H]1C[N@@]2CC[C@H]1C[C@@H]2[C@@H](O)c1ccnc2ccc(OC)cc12` [QUINIDINE], in data set [6], the Compound recovery is given as more than 70%.

With `Cc1nc2n(c(=O)c1CCN1CCC(c3noc4cc(F)ccc34)CC1)CCCC2` [RISPERIDONE], the fraction unbound at 6 h came out at 0.276 in data set [2], 0.186 in data set [3], 0.222 in data set [4] and 0.163 in data set [5]. The compound also returned a Compound recovery in data set [6] of more than 70%.

Regarding `CC(CN(C)C)CN1c2ccccc2CCc2ccccc21` (stereo not given) [TRIMIPRAMINE], the pKa in data set [1] was determined as 8.4. For the same compound, the fraction unbound at 6 h in data set [2] was determined as 0.106; in data set [3], 0.054; in data set [4], 0.052; in data set [5] it was 0.037. Further, in data set [6], the Compound recovery is listed as more than 70%.

`CC(=O)CC(c1ccccc1)c1c(O)c2ccccc2oc1=O` (stereo not given) [WARFARIN] returned a Compound recovery in data set [6] of more than 70%.
